In PubChem BioAssay AID328 (DTP/NCI, 2004):
Several values for one entry are separate records, joined by “and”; a condition that tells them apart may be missing. Equal entries are not always repeated. Toxic doses and inconclusive results are not listed. Rule for the calls: active = survival T/C of 150% or more; inactive = T/C below 125% in these data.

Test system: BDF1 mice, P388 leukemia ip, median survival T/C
Assay: NCI In Vivo Anticancer Drug Screen. Data for tumor model P388 Leukemia (intraperitoneal) in B6D2F1 (BDF1) mice
Settings: endpoint: median survival time, higher = longer survival
How it was run: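 Vehicle-dosed animals serve as the reference; survival of compound-dosed, tumour-implanted mice is divided by it.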

[1] = dose: 50.0 mg/kg/injection, schedule: Q01DX009 (ip), vehicle: saline with Tween-80
[2] = dose: 100.0 mg/kg/injection, schedule: Q01DX009 (ip), vehicle: saline with Tween-80
[3] = dose: 200.0 mg/kg/injection, schedule: Q01DX009 (ip), vehicle: saline with Tween-80
[4] = dose: 25.0 mg/kg/injection, schedule: Q01DX009 (ip), vehicle: Klucel (hydroxypropylcellulose) (HPC)
[5] = dose: 50.0 mg/kg/injection, schedule: Q04DX003 (ip), vehicle: Klucel (hydroxypropylcellulose) (HPC)
[6] = dose: 100.0 mg/kg/injection, schedule: Q01DX009 (ip), vehicle: Klucel (hydroxypropylcellulose) (HPC)
[7] = dose: 100.0 mg/kg/injection, schedule: Q04DX003 (ip), vehicle: Klucel (hydroxypropylcellulose) (HPC)
[8] = dose: 50.0 mg/kg/injection, schedule: Q01DX009 (ip), vehicle: Klucel (hydroxypropylcellulose) (HPC)
[9] = dose: 200.0 mg/kg/injection, schedule: Q01DX009 (ip), vehicle: Klucel (hydroxypropylcellulose) (HPC)
[10] = dose: 100.0 mg/kg/injection, schedule: Q01DX010 (ip), vehicle: saline
[11] = dose: 200.0 mg/kg/injection, schedule: Q01DX010 (ip), vehicle: saline

Measured: T/C

N#C/C(=C\c1ccncc1)c1ccccc1
inactive: dose: 12.5 mg/kg/injection, schedule: Q01DX009 (ip), vehicle: saline with Tween-80 92 % of control | [1] 98 % of control | [2] 112 % of control | [3] 98 % of control

N#CC(C#N)=Cc1cccc([N+](=O)[O-])c1
inactive: [4] 90 % of control and 115 % of control | [5] 113 % of control | [6] 95 % of control | [7] 113 % of control

CCO/C=C1\SC(=S)N(c2ccccc2OC)C1=O
inactive: [4] 100 % of control | [8] 112 % of control | dose: 88.0 mg/kg/injection, schedule: Q01DX009 (ip), vehicle: Klucel (hydroxypropylcellulose) (HPC) 103 % of control | dose: 88.0 mg/kg/injection, schedule: Q01DX009 (ip), vehicle: saline with Tween-80 122 % of control | [6] 94 % of control | dose: 132.0 mg/kg/injection, schedule: Q01DX009 (ip), vehicle: Klucel (hydroxypropylcellulose) (HPC) 103 % of control | [9] 94 % of control and 123 % of control | dose: 300.0 mg/kg/injection, schedule: Q01DX009 (ip), vehicle: Klucel (hydroxypropylcellulose) (HPC) 112 % of control

N[C@H](Cc1c[nH]c2ccccc12)C(=O)O
inactive: [10] 92 % of control | [11] 96 % of control | dose: 400.0 mg/kg/injection, schedule: Q01DX010 (ip), vehicle: saline 96 % of control | dose: 800.0 mg/kg/injection, schedule: Q01DX010 (ip), vehicle: saline 110 % of control

Cc1ccc(N2CCN(CCCN3CCN(c4ccc(Cl)cc4)CC3)CC2)cc1
inactive: dose: 50.0 mg/kg/injection, schedule: Q04DX003 (ip), vehicle: saline sonified 100 % of control | dose: 100.0 mg/kg/injection, schedule: Q04DX003 (ip), vehicle: saline sonified 95 % of control | dose: 200.0 mg/kg/injection, schedule: Q04DX003 (ip), vehicle: saline sonified 95 % of control

CCOC(=O)C(=CN(C)c1ccc([N+](=O)[O-])cc1)C(=O)OCC
inactive: dose: 50.0 mg/kg/injection, schedule: Q01DX009 (ip), vehicle: other 100 % of control | dose: 100.0 mg/kg/injection, schedule: Q01DX009 (ip), vehicle: other 103 % of control | dose: 200.0 mg/kg/injection, schedule: Q01DX009 (ip), vehicle: other 109 % of control

CN(N=O)C(=O)NCCSSCCNC(=O)N(C)N=O
inactive: dose: 53.0 mg/kg/injection, schedule: Q04DX003 (ip), vehicle: saline with Tween-80 120 % of control | dose: 120.0 mg/kg/injection, schedule: Q04DX003 (ip), vehicle: saline with Tween-80 100 % of control
active: dose: 80.0 mg/kg/injection, schedule: Q04DX003 (ip), vehicle: saline with Tween-80 170 % of control

CCCCCC1(O)C2CCCC1CCC2 (stereo not drawn)
inactive: dose: 50.0 mg/kg/injection, schedule: Q01DX001 (ip), vehicle: saline sonified 105 % of control | dose: 50.0 mg/kg/injection, schedule: Q01DX001 (ip), vehicle: suspension in saline 98 % of control | dose: 100.0 mg/kg/injection, schedule: Q01DX001 (ip), vehicle: saline sonified 105 % of control | dose: 100.0 mg/kg/injection, schedule: Q01DX001 (ip), vehicle: suspension in saline 104 % of control | dose: 200.0 mg/kg/injection, schedule: Q01DX001 (ip), vehicle: suspension in saline 107 % of control

C1CC[N-]CC1.[Cl][Pt+2][Cl].[NH-]C1CC1
active: dose: 1.5 mg/kg/injection, schedule: Q01DX005 (ip), vehicle: distilled water + Tween-80 153 % of control | dose: 1.5 mg/kg/injection, schedule: Q01DX005 (ip), vehicle: water 150 % of control | dose: 3.0 mg/kg/injection, schedule: Q01DX005 (ip), vehicle: water 164 % of control | dose: 6.0 mg/kg/injection, schedule: Q01DX005 (ip), vehicle: distilled water + Tween-80 157 % of control | dose: 6.0 mg/kg/injection, schedule: Q01DX005 (ip), vehicle: water 185 % of control | dose: 12.0 mg/kg/injection, schedule: Q01DX005 (ip), vehicle: distilled water + Tween-80 176 % of control | dose: 12.0 mg/kg/injection, schedule: Q01DX005 (ip), vehicle: water 192 % of control

COc1c(C)c2c(c(O)c1C/C=C(\C)CCC(=O)O)C(=O)OC2
inactive: dose: 25.0 mg/kg/injection, schedule: Q01DX010 (ip), vehicle: saline 112 % of control and 100 % of control | dose: 50.0 mg/kg/injection, schedule: Q01DX010 (ip), vehicle: saline 104 % of control and 118 % of control | [10] 116 % of control and 100 % of control | dose: 100.0 mg/kg/injection, schedule: Q04DX002 (ip), vehicle: Klucel (hydroxypropylcellulose) (HPC) 100 % of control | [11] 100 % of control and 118 % of control | dose: 200.0 mg/kg/injection, schedule: Q04DX002 (ip), vehicle: Klucel (hydroxypropylcellulose) (HPC) 100 % of control | dose: 400.0 mg/kg/injection, schedule: Q04DX002 (ip), vehicle: Klucel (hydroxypropylcellulose) (HPC) 116 % of control

N#CC(=C1C=CC(=NO)C=C1)c1ccc(Cl)cc1
inactive: [4] 114 % of control | dose: 25.0 mg/kg/injection, schedule: Q04DX003 (ip), vehicle: Klucel (hydroxypropylcellulose) (HPC) 102 % of control | [8] 114 % of control | [5] 98 % of control | [6] 117 % of control | [7] 110 % of control | dose: 200.0 mg/kg/injection, schedule: Q04DX003 (ip), vehicle: Klucel (hydroxypropylcellulose) (HPC) 122 % of control | dose: 400.0 mg/kg/injection, schedule: Q04DX003 (ip), vehicle: Klucel (hydroxypropylcellulose) (HPC) 113 % of control

C1CC2C(CCCC23OCCO3)C2(C1)OCCO2 (stereo not drawn)
inactive: [8] 113 % of control | [6] 86 % of control | dose: 100.0 mg/kg/injection, schedule: Q04DX003 (ip), vehicle: other 100 % of control | [9] 95 % of control | dose: 200.0 mg/kg/injection, schedule: Q04DX003 (ip), vehicle: other 95 % of control | dose: 400.0 mg/kg/injection, schedule: Q04DX003 (ip), vehicle: other 100 % of control

NC(N)=N/N=C(/c1ccccc1)c1ccc(F)cc1
inactive: dose: 1.2 mg/kg/injection, schedule: Q01DX009 (ip), vehicle: Klucel (hydroxypropylcellulose) (HPC) 115 % of control | dose: 5.0 mg/kg/injection, schedule: Q01DX009 (ip), vehicle: Klucel (hydroxypropylcellulose) (HPC) 104 % of control and 105 % of control | dose: 5.0 mg/kg/injection, schedule: Q01DX009 (ip), vehicle: saline 95 % of control | dose: 10.0 mg/kg/injection, schedule: Q01DX009 (ip), vehicle: Klucel (hydroxypropylcellulose) (HPC) 100 % of control and 109 % of control | dose: 10.0 mg/kg/injection, schedule: Q01DX009 (ip), vehicle: saline 100 % of control | dose: 20.0 mg/kg/injection, schedule: Q01DX009 (ip), vehicle: saline 112 % of control

CCC(O)(CC(=O)O)c1ccccc1 (stereo not drawn)
inactive: dose: 100.0 mg/kg/injection, schedule: Q04DX003 (ip), vehicle: saline with Tween-80 95 % of control | dose: 200.0 mg/kg/injection, schedule: Q04DX003 (ip), vehicle: saline with Tween-80 90 % of control | dose: 400.0 mg/kg/injection, schedule: Q04DX003 (ip), vehicle: saline with Tween-80 90 % of control

CCN(CC)CCCCCCNc1cc(OC)c(OC)c2c(C)ccnc12
inactive: dose: 3.13 mg/kg/injection, schedule: Q01DX009 (ip), vehicle: saline 102 % of control | dose: 6.25 mg/kg/injection, schedule: Q01DX009 (ip), vehicle: saline 109 % of control

COC(=O)/C=C/CCOS(C)(=O)=O
inactive: dose: 100.0 mg/kg/injection, schedule: Q04DX002 (ip), vehicle: saline with Tween-80 104 % of control | dose: 200.0 mg/kg/injection, schedule: Q04DX002 (ip), vehicle: saline with Tween-80 124 % of control | dose: 400.0 mg/kg/injection, schedule: Q04DX002 (ip), vehicle: saline with Tween-80 107 % of control

OC12CCCCC1Cc1cc3c(cc1O2)CC1CCCCC1(O)O3 (stereo not drawn)
inactive: [1] 100 % of control | [2] 93 % of control | [3] 96 % of control

CC(C)C1=C(O)C2=C(C(=O)C1=O)C1(C)CCCC(C)(C)C1CC2O (stereo not drawn)
inactive: dose: 2.0 mg/kg/injection, schedule: Q01DX010 (ip), vehicle: carboxymethylcellulose (CMC) 100 % of control | dose: 5.0 mg/kg/injection, schedule: Q01DX010 (ip), vehicle: carboxymethylcellulose (CMC) 95 % of control | dose: 10.0 mg/kg/injection, schedule: Q01DX010 (ip), vehicle: carboxymethylcellulose (CMC) 90 % of control | dose: 20.0 mg/kg/injection, schedule: Q01DX010 (ip), vehicle: carboxymethylcellulose (CMC) 105 % of control
